Like-named read-outs stand apart in the source and are kept apart here.
Assays:
human MMP13 = human MMP13 (Homo sapiens (Human), UniProt P45452); conditions: read-out: hMMP-13 potency IC50
Protocol: Human MMP13 is preactivated by incubated the enzyme in the same buffer complemented with 1 mM freshly prepared p-Aminophenylmercuric acetate (AMPA) for 1 hour at 37° C.

rnADAMTS-5 (1-564-6H) = rnADAMTS-5 (1-564-6H) (Rattus norvegicus, UniProt Q6TY19); conditions: read-out: Rat ADAMTS-5 potency IC50
human ADAMTS-5 [1] = target: T1, human ADAMTS-5 (Homo sapiens (Human), UniProt Q9UNA0); conditions: read-out: hADAMTS-5 potency IC50
human TACE = human TACE (Homo sapiens (Human), UniProt P78536); conditions: read-out: TACE potency IC50
Chain of human TACE (P78536 whole entry, looked up, change not shown): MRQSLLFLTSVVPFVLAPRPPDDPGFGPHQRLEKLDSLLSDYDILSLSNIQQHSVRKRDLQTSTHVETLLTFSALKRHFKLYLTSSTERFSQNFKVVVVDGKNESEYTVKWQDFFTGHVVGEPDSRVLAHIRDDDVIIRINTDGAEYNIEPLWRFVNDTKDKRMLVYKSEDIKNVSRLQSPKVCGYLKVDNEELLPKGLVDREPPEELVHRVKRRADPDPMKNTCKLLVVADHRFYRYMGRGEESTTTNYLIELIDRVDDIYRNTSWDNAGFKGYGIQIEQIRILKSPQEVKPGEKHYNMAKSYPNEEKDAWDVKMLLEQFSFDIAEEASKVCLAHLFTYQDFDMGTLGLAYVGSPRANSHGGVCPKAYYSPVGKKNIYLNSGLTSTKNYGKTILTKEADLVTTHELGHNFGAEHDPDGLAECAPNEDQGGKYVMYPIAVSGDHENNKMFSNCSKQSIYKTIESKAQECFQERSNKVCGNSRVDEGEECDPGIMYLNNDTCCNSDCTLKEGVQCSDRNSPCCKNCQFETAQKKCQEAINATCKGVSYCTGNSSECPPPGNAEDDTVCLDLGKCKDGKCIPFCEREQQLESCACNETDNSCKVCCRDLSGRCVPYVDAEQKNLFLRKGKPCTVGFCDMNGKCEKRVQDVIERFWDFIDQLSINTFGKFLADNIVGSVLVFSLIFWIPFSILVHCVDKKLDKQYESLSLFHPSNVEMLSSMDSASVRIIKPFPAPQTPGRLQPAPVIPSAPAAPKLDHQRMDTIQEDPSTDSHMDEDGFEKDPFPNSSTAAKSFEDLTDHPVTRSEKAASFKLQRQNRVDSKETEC

human ADAMTS-5 [2] = target: T1, human ADAMTS-5; conditions: read-out: hADAMTS-5 potency IC50; remark: listed apart in the source
Protocol: Finally, the fluorescence is read on the Envision (Perkin Elmer) after an incubation of 90 min at 37° C.

human MMP14 = human MMP14 (Homo sapiens (Human), UniProt P50281); conditions: read-out: hMMP-14 potency IC50

T1 sequence (Q9UNA0 262-930): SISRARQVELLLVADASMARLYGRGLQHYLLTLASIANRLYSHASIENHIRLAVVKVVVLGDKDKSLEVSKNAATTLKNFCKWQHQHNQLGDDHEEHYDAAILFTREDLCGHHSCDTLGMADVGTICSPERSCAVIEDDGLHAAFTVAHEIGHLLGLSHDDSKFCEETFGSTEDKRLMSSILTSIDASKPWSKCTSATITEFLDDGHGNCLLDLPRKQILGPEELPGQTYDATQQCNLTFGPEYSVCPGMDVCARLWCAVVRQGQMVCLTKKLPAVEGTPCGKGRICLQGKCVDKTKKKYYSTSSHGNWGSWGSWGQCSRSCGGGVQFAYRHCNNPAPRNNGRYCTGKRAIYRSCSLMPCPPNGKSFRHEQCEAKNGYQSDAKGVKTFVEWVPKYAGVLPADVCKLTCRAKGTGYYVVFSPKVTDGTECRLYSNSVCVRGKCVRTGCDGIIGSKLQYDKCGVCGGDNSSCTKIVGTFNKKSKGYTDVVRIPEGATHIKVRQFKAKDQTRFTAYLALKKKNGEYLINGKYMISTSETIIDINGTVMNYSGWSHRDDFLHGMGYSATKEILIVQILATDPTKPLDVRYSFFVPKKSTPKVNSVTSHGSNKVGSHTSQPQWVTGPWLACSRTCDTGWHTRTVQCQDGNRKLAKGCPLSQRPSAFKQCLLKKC

Structure (SMILES)	IC50 (human MMP13) [µM]	IC50 (rnADAMTS-5 (1-564-6H)) [nM]	IC50 (human ADAMTS-5 [1]) [nM]	IC50 (human TACE) [µM]	IC50 (human ADAMTS-5 [2]) [nM]	IC50 (human MMP14) [µM]
CN(C)CCOc1ccc(C2(CCC(=O)N3CCN(c4cccc(Cl)c4)CC3)NC(=O)NC2=O)cc1 (stereo not shown) [compound 80, 5-[3-[4-(3-chlorophenyl)piperazin-1-yl]-3-oxo-propyl]-5-[4-(2-dimethylaminoethyloxy)phenyl]imidazolidine-2,4-dione]	3.79	429	257	> 20		
CC1(CCC(=O)N2CCN(c3cncc(Cl)c3)CC2)NC(=O)NC1=O (stereo not shown) [compound 85, 5-[3-[4-(5-chloro-3-pyridyl)piperazin-1-yl]-3-oxo-propyl]-5-methyl-imidazolidine-2,4-dione]	> 20	1110	1270	> 4		
CC1(CCC(=O)N2CCN(c3cncc(Br)c3)CC2)NC(=O)NC1=O (stereo not shown) [compound 86, 5-[3-[4-(5-bromo-3-pyridyl)piperazin-1-yl]-3-oxo-propyl]-5-methyl-imidazolidine-2,4-dione]	> 20	1790	1700	> 4		
Cc1ccc(C)c(N2CCN(C(=O)CCC3(c4ccccn4)NC(=O)NC3=O)CC2)c1 (stereo not shown) [compound 87, 5-[3-[4-(2,5-dimethylphenyl)piperazin-1-yl]-3-oxo-propyl]-5-(2-pyridyl)imidazolidine-2,4-dione]	> 20	113	137	0.12		
Cc1ccc(C)c(N2CCN(C(=O)CCC3(c4cccnc4)NC(=O)NC3=O)CC2)c1 (stereo not shown) [compound 88, 5-[3-[4-(2,5-dimethylphenyl)piperazin-1-yl]-3-oxo-propyl]-5-(3-pyridyl)imidazolidine-2,4-dione]	> 20	119	119	0.211		
O=C1NC(=O)C(CCC(=O)N2CCN(c3ccc(F)c(F)c3)CC2)(c2cccnc2)N1 (stereo not shown) [compound 90, 5-[3-[4-(3,4-difluorophenyl)piperazin-1-yl]-3-oxo-propyl]-5-(3-pyridyl)imidazolidine-2,4-dione]	1.21	70	85	> 4		
O=C1NC(=O)C(CCC(=O)N2CCN(c3ccc(F)c(Cl)c3)CC2)(c2cccnc2)N1 (stereo not shown) [compound 91, 5-[3-[4-(3-chloro-4-fluoro-phenyl)piperazin-1-yl]-3-oxo-propyl]-5-(3-pyridyl)imidazolidine-2,4-dione]	1.68	69	95	> 4		
Cc1ccc(F)cc1N1CCN(C(=O)CCC2(c3cccnc3)NC(=O)NC2=O)CC1 (stereo not shown) [compound 92, 5-[3-[4-(5-fluoro-2-methyl-phenyl)piperazin-1-yl]-3-oxo-propyl]-5-(3-pyridyl)imidazolidine-2,4-dione]	> 20	64	63	1.05		
Cc1cc(Cl)c(F)cc1N1CCN(C(=O)CCC2(C)NC(=O)NC2=O)CC1 (stereo not shown) [compound 93, 5-[3-[4-(4-chloro-5-fluoro-2-methyl-phenyl)piperazin-1-yl]-3-oxo-propyl]-5-methyl-imidazolidine-2,4-dione]	> 20	> 4000	> 4080	> 3.53		
Cc1cc(F)c(F)cc1N1CCN(C(=O)CCC2(C)NC(=O)NC2=O)CC1 (stereo not shown) [compound 94, 5-[3-[4-(4,5-difluoro-2-methyl-phenyl)piperazin-1-yl]-3-oxo-propyl]-5-methyl-imidazolidine-2,4-dione]	> 20	3020	2130	> 4		
O=C1NC(=O)C(CCC(=O)N2CCN(c3ccc(F)c(F)c3)CC2)(c2ccccn2)N1 (stereo not shown) [compound 95, 5-[3-[4-(3,4-difluorophenyl)piperazin-1-yl]-3-oxo-propyl]-5-(2-pyridyl)imidazolidine-2,4-dione]	2.2	40	48	> 4		
O=C1NC(=O)C(CCC(=O)N2CCN(c3ccc(F)c(Cl)c3)CC2)(c2ccccn2)N1 (stereo not shown) [compound 96, 5-[3-[4-(3-chloro-4-fluoro-phenyl)piperazin-1-yl]-3-oxo-propyl]-5-(2-pyridyl)imidazolidine-2,4-dione]	1.06	57	49	3.59		
Cc1c(F)cccc1N1CCN(C(=O)CCC2(c3cccnc3)NC(=O)NC2=O)CC1 (stereo not shown) [compound 97, 5-[3-[4-(3-fluoro-2-methyl-phenyl)piperazin-1-yl]-3-oxo-propyl]-5-(3-pyridyl)imidazolidine-2,4-dione]	> 20	148	168	> 4		
Cc1c(F)cccc1N1CCN(C(=O)CCC2(c3ccccn3)NC(=O)NC2=O)CC1 (stereo not shown) [compound 100, 5-[3-[4-(3-fluoro-2-methyl-phenyl)piperazin-1-yl]-3-oxo-propyl]-5-(2-pyridyl)imidazolidine-2,4-dione]	> 20	163	185	> 4		
O=C1NC(=O)C(CCC(=O)N2CCN(c3cccc(F)c3)CC2)(c2ccccn2)N1 (stereo not shown) [compound 103, 5-[3-[4-(3-fluorophenyl)piperazin-1-yl]-3-oxo-propyl]-5-(2-pyridyl)imidazolidine-2,4-dione]	2	24	28	4.1		
Cc1ccc(F)cc1N1CCN(C(=O)CCC2(c3ccccn3)NC(=O)NC2=O)CC1 (stereo not shown) [compound 104, 5-[3-[4-(5-fluoro-2-methyl-phenyl)piperazin-1-yl]-3-oxo-propyl]-5-(2-pyridyl)imidazolidine-2,4-dione]	> 20	41	43	0.461		
CC1CN(C(=O)CCC2(c3cccnc3)NC(=O)NC2=O)CCN1c1ccccc1 (stereo not shown) [compound 105, 5-[3-(3-methyl-4-phenyl-piperazin-1-yl)-3-oxo-propyl]-5-(3-pyridyl)imidazolidine-2,4-dione]	> 20	162	226	> 20		
CC1CN(C(=O)CCC2(C3CC3)NC(=O)NC2=O)CCN1c1ccccc1 (stereo not shown) [compound 106, 5-cyclopropyl-5-[3-(3-methyl-4-phenyl-piperazin-1-yl)-3-oxo-propyl]imidazolidine-2,4-dione]	> 20	222	233	> 20		
CC(C)(C)C1(CCC(=O)N2CCN(c3cccc(Cl)c3)CC2)NC(=O)NC1=O (stereo not shown) [compound 107, 5-tert-butyl-5-[3-[4-(3-chlorophenyl)piperazin-1-yl]-3-oxo-propyl]imidazolidine-2,4-dione]	> 20	147	172	> 4		
O=C1NC(=O)C(CCC(=O)N2CCN(c3cccc(Cl)c3)CC2)(C2CCCC2)N1 (stereo not shown) [compound 109, 5-[3-[4-(3-chlorophenyl)piperazin-1-yl]-3-oxo-propyl]-5-cyclopentyl-imidazolidine-2,4-dione]	> 4	182	261	5.26		
O=C1NC(=O)C(CCC(=O)N2CCN(c3cc(Cl)cc(Cl)c3)CC2)(c2cccnc2)N1 (stereo not shown) [compound 111, 5-[3-[4-(3,5-dichlorophenyl)piperazin-1-yl]-3-oxo-propyl]-5-(3-pyridyl)imidazolidine-2,4-dione]	> 20	46	42	0.963		
O=C1NC(=O)C(CCC(=O)N2CCN(c3ccc(F)c(F)c3)CC2)(C2CC2)N1 (stereo not shown) [compound 113, 5-cyclopropyl-5-[3-[4-(3,4-difluorophenyl)piperazin-1-yl]-3-oxo-propyl]imidazolidine-2,4-dione]	3.62	91	104	> 20		
O=C1NC(=O)C(CCC(=O)N2CCN(c3ccc(F)c(Cl)c3)CC2)(C2CC2)N1 (stereo not shown) [compound 114, 5-[3-[4-(3-chloro-4-fluoro-phenyl)piperazin-1-yl]-3-oxo-propyl]-5-cyclopropyl-imidazolidine-2,4-dione]	2.58	62	67	> 20		
CC(CC1(C2CC2)NC(=O)NC1=O)C(=O)N1CCN(c2cccc(Cl)c2)CC1 (stereo not shown) [compound 121, 5-[3-[4-(3-chlorophenyl)piperazin-1-yl]-2-methyl-3-oxo-propyl]-5-cyclopropyl-imidazolidine-2,4-dione]	0.0706	24	15	1.1	15	
C[C@H]1CN(C(=O)CCC2(c3ccccc3)NC(=O)NC2=O)CCN1c1ccccc1 (stereo partly drawn) [compound 137, 5-[3-[(3S)-3-methyl-4-phenyl-piperazin-1-yl]-3-oxo-propyl]-5-phenyl-imidazolidine-2,4-dione]	> 20	249	240	> 20		
O=C1NC(=O)C(CCC(=O)N2CCN(c3ccccc3)CC2)(C2CC2)N1 (stereo not shown) [compound 138, 5-cyclopropyl-5-[3-oxo-3-(4-phenylpiperazin-1-yl)propyl]imidazolidine-2,4-dione]	> 4	107	101	> 20		
COCC1(CC(C)C(=O)N2CCN(c3cc(Cl)cc(Cl)c3C)[C@@H](C)C2)NC(=O)NC1=O (stereo partly drawn) [compound 227, 5-[3-[(3S)-4-(3,5-dichloro-2-methyl-phenyl)-3-methyl-piperazin-1-yl]-2-methyl-3-oxo-propyl]-5-(methoxymethyl)imidazolidine-2,4-dione]						> 20
